Measured values from patent US20240140933A1, “OXOINDOLINE COMPOUND FOR THE TREATMENT OF INFLAMMATORY DISEASES OR CANCER” (Hoffmann-La Roche Inc., priority 2021, published 2024).

Biological target: PDHK1 (Homo sapiens (Human), UniProt Q15118)
Assay: PDHK1 enzymatic assay (AlphaScreen, phosphorylation of PDHE1 S293)
Format: biochemical
Conditions: 1 nM PDHK1, 25 nM PDHE1, 20 μM ATP, 30° C. for 45 minutes
Text: Pyruvate dehydrogenase complex (PDHc) is an enzyme that catalyzes the reaction of pyruvate and a lipoamide to give the acetylated dihydrolipoamide and carbon dioxide. PDHc has three subunits E1, E2 and E3. E1 has 3 serine phosphorylation sites S293, S232, S300. If E1 was phosphorylated, PDH will be inactivated. PDHK can phosphorylate PDH protein (also named PDHE1) in PDH complex (PDC) to inactivate it.

Sequence of PDHK1 (Q15118 29-436): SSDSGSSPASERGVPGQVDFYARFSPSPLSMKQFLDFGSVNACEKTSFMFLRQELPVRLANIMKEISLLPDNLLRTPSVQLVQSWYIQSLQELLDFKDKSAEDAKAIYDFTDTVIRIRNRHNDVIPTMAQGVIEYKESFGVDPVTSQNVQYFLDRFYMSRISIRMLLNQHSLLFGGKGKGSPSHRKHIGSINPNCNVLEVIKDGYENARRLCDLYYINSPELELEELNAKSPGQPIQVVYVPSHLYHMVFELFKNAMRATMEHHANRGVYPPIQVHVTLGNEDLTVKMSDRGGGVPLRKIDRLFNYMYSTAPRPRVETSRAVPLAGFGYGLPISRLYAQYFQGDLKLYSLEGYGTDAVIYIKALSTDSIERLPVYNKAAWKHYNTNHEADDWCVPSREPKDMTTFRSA

Enzymatic IC50 against PDHK1 [µg/mL]	IC50 (read-out: Enzymatic IC50 against PDHK1 (converted)) [nM]	SMILES
0.015		CCNc1cc(F)cc2c1NC(=O)C2(C)N1CCC[C@@H](Oc2ccc(O)c(C=O)c2)C1 (stereo partly drawn) [Example 2, 5-[[(3R)-1-[7-(ethylamino)-5-fluoro-3-methyl-2-oxo-indolin-3-yl]-3-piperidyl]oxy]-2-hydroxy-benzaldehyde]
0.047		CCNc1cc(F)cc2c1NC(=O)C2(C)N1CCC[C@@H](NC(=O)C2CCS(=O)(=O)CC2)C1 (stereo partly drawn) [Example 36, N-[(3R)-1-[7-(ethylamino)-5-fluoro-3-methyl-2-oxo-indolin-3-yl]-3-piperidyl]-1,1-dioxo-thiane-4-carboxamide]
0.020		CCNc1cc(F)cc2c1NC(=O)C2(C)N1CCC[C@@H](Nc2ccc(C(=O)O)nc2)C1 (stereo partly drawn) [Example 11, 5-[[(3R)-1-[7-(ethylamino)-5-fluoro-3-methyl-2-oxo-indolin-3-yl]-3-piperidyl]amino]pyridine-2-carboxylic acid]
0.038		CCNc1cc(F)cc2c1NC(=O)C2(C)N1CCC[C@@H](Nc2ccc(S(C)(=O)=O)nc2)C1 (stereo partly drawn) [Example 20, 7-(ethylamino)-5-fluoro-3-methyl-3-[(3R)-3-[(6-methylsulfonyl-3-pyridyl)amino]-1-piperidyl]indolin-2-one]
	47.3	CCNc1cc(F)cc2c1NC(=O)[C@@]2(C)N1CC[C@@H](c2ccccc2)[C@@H](C(=O)Nc2ccccc2)C1 [Example 61B, (3R,4R)-1-[(3S)-7-(ethylamino)-5-fluoro-3-methyl-2-oxo-indolin-3-yl]-N,4-diphenyl-piperidine-3-carboxamide]

More lines, now with the values behind:

SMILES	Enzymatic IC50 against PDHK1 [µg/mL]	IC50 (read-out: Enzymatic IC50 against PDHK1 (converted)) [nM]
CCNc1cc(F)cc2c1NC(=O)C2(CC)N1CCC[C@@H](N(C(C)=O)c2ccc(C#N)nc2)C1 (stereo partly drawn) [Example 25, N-(6-cyano-3-pyridyl)-N-[(3R)-1-[3-ethyl-7-(ethylamino)-5-fluoro-2-oxo-indolin-3-yl]-3-piperidyl]acetamide]	0.142	
CCNc1cc(F)cc2c1NC(=O)[C@]2(C)N1CCC[C@@H](Oc2ccc(S(=O)(=O)F)cc2)C1 [Example 3A, 4-[[(3R)-1-[(3R)-7-(ethylamino)-5-fluoro-3-methyl-2-oxo-indolin-3-yl]-3-piperidyl]oxy]benzenesulfonyl fluoride]	0.036	
CCNc1cc(F)cc2c1NC(=O)C2(C)N1CCC[C@@H](NC(=O)c2cc(F)c(O)c(F)c2)C1 (stereo partly drawn) [Example 35, N-[(3R)-1-[7-(ethylamino)-5-fluoro-3-methyl-2-oxo-indolin-3-yl]-3-piperidyl]-3,5-difluoro-4-hydroxy-benzamide]	0.030	
CCNc1cc(F)cc2c1NC(=O)C2(C)N1CCC[C@@H](Nc2ccc(CO)nc2)C1 (stereo partly drawn) [Example 18, 7-(ethylamino)-5-fluoro-3-[(3R)-3-[[6-(hydroxymethyl)-3-pyridyl]amino]-1-piperidyl]-3-methyl-indolin-2-one]	0.059	
